Literature values, collected in patent publication US20220395496A1 (Hoffmann-La Roche Inc., priority 2019, published 2022).

Experiments:
HEK/hTLR7 = target: T1, HEK/hTLR7 (Homo sapiens, UniProt Q9NYK1); conditions: data disclosed in WO2015057655; cited from earlier work
T1 construct: host or cells: HEK cells
T1 sequence (Q9NYK1 27-1049): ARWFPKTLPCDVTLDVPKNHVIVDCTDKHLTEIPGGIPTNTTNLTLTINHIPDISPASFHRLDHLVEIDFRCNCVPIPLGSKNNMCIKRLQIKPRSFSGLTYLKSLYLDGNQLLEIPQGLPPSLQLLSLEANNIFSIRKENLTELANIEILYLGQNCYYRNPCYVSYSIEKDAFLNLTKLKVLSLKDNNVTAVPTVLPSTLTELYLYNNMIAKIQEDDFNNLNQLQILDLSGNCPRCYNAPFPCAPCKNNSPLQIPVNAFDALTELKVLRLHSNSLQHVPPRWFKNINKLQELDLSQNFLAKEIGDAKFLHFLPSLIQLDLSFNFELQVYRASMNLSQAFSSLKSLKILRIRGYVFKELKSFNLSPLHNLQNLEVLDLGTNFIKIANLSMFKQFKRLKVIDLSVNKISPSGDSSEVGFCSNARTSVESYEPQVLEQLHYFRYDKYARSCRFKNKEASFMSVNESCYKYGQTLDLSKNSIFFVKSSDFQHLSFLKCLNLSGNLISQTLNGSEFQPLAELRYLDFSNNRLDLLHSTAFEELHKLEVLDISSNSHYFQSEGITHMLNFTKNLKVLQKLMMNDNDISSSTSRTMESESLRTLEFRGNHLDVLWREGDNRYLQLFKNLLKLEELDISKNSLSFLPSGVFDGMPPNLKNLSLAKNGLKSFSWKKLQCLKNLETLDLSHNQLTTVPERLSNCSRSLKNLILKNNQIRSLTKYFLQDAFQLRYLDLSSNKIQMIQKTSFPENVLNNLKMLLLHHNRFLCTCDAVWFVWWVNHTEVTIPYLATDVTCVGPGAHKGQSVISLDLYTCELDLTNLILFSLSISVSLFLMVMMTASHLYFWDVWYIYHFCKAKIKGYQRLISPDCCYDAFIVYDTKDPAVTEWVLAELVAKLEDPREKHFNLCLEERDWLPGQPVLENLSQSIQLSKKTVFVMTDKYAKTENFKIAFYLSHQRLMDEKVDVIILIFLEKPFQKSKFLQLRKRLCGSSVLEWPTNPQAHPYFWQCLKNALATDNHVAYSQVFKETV

HEK/hTLR9 = target: T2, HEK/hTLR9 (Homo sapiens, UniProt Q9NR96); conditions: data disclosed in WO2015057655; cited from earlier work
T2 construct: host or cells: HEK cells
T2 sequence (Q9NR96 26-1032): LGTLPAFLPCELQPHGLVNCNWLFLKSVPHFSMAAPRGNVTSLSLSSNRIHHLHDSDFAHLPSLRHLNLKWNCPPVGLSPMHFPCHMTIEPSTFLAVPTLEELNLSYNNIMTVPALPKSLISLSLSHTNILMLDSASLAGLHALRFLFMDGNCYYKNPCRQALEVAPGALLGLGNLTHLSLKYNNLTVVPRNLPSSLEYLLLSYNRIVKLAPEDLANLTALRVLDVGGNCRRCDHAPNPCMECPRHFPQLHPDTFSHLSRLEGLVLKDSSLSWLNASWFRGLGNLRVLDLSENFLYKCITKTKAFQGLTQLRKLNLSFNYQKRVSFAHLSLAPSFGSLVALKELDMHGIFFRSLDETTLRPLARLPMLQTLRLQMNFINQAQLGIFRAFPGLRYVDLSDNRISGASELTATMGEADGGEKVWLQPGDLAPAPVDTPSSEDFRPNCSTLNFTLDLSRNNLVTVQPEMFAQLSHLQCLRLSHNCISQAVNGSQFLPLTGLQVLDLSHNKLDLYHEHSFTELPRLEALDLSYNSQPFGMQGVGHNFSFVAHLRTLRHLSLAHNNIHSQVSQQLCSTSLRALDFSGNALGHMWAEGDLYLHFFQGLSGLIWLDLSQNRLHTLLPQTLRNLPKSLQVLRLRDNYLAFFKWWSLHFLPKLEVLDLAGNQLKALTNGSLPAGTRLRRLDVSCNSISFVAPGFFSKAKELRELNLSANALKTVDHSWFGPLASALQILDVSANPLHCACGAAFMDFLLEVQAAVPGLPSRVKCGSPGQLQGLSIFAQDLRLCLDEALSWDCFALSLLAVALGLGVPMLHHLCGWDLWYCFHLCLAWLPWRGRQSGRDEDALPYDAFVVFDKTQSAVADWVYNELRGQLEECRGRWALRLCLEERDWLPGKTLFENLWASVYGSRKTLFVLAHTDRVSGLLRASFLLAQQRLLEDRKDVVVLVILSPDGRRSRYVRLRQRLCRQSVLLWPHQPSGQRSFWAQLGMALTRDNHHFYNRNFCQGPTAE

| Compound | IC50 (HEK/hTLR7) [nM] | IC50 (HEK/hTLR9) [nM] |
| --- | --- | --- |
| C[C@H]1C[C@@H](NCc2ccc(C(F)(F)F)cn2)CN(c2ccc(C#N)c3ncccc23)C1 [ER-899543] | 48 | > 10000 |
| C[C@H]1C[C@@H](NCc2ncco2)CN(c2ccc(C#N)c3ncccc23)C1 [ER-899551] | 43 | > 10000 |
| C[C@H]1C[C@@H](NCc2cn(C)cn2)CN(c2ccc(C#N)c3ncccc23)C1 [ER-899552] | 207 | 1970 |
| CC(N[C@@H]1C[C@H](C)CN(c2ccc(C#N)c3ncccc23)C1)c1ccccn1 (some centres unmarked) [ER-899607] | 149 | > 10000 |
